Test results reported in patent publication US20140357487A1, “PLANTS HAVING INCREASED TOLERANCE TO HERBICIDES” (BASF SE, priority 2011, published 2014).

Key:
[1] = molecular target: T1, Arabidopsis HPPD variant M335H, P336A, E363Q (Arabidopsis thaliana, UniProt P93836, E363Q/M335H/P336A); experiment: HPPD activity assay, Arabidopsis HPPD mutant M335H, P336A, E363Q; format: biochemical; conditions: normalized on Arabidopsis wild-type HPPD
T1 construct: PCR-based site directed mutagenesis of pEXP5-NT/TOPO®-AtHPPD is done; His6 (N); made in house; host or cells: E. coli BL21 (DE3)
Procedure: (§1) HPPD produces homogentisic acid and CO2 from 4-hydroxyphenylpyruvate (4-HPP) and O2. The activity assay for HPPD is based on the analysis of homogentisic acid by reversed phase HPLC.
(§2) The assay mixture can contain 150 mM potassium phosphate buffer pH 7.0, 50 mM L-ascorbic acid, 1 μM FeSO4 and 7 μg of purified enzyme in a total volume of 1 ml.
Inhibitors are dissolved in DMSO (dimethylsulfoxide) to a concentration of 20 mM or 0.5 mM, respectively. From this stock solution serial five-fold dilutions are prepared in DMSO, which are used in the assay. The respective inhibitor solution accounts for 1% of the assay volume. […] After a preincubation of 30 min the reaction is started by adding 4-HPP to a final concentration of 0.1 mM. The reaction is allowed to proceed for 120 min at room temperature. The reaction is stopped by addition of 100 μl of 4.5 M phosphoric acid.
Activities are normalized by setting the uninhibited enzyme activity to 100%. IC50 values are calculated using non-linear regression.
The assay mixture can contain 150 mM potassium phosphate buffer pH 7.0, 50 mM L-ascorbic acid, 100 μM Catalase (Sigma-Aldrich), 1 μM FeSO4 and 0.2 units of purified HPPD enzyme in a total volume of 505 μl. 1 unit is defined as the amount of enzyme that is required to produce 1 nmol of HGA per minute at 20° C.
Inhibitors are dissolved in DMSO (dimethylsulfoxide) to a concentration of 0.5 mM. […] IC50 values are calculated using non-linear regression. […]
Purified, mutant HPPD enzymes are obtained by the methods described above. […] Apparent michaelis constants (Km) and maximal reaction velocities (Vmax) are calculated by non-linear regression with the software GraphPad Prism 5 (GraphPad Software, La Jolla, USA) using a substrate inhibition model.
Field performance of the optimized HPPD enzyme, which is used as a herbicide tolerance trait may depend not only on its lack of sensitivity towards HPPD inhibiting herbicides but also on its activity. To assess the potential performance of a herbicide tolerance trait a tolerance index (TI) is calculated using the following formula: […]

[2] = tested on: Kordia HPPD; experiment: HPPD activity assay, Kordia HPPD; format: biochemical; conditions: normalized on Arabidopsis wild-type HPPD
Procedure: as §1, §2
Inhibitors are dissolved in DMSO (dimethylsulfoxide) to a concentration of 20 mM or 0.5 mM, respectively. From this stock solution serial five-fold dilutions are prepared in DMSO, which are used in the assay. The respective inhibitor solution accounts for 1% of the assay volume. […]
Activities are normalized by setting the uninhibited enzyme activity to 100%. IC50 values are calculated using non-linear regression. […]
Inhibitors are dissolved in DMSO (dimethylsulfoxide) to a concentration of 0.5 mM. […] IC50 values are calculated using non-linear regression.
Using methods which are described in the above examples or well known in the art, purified, recombinant wildtype HPPD enzymes are characterized with respect to their kinetic properties and sensitivity towards HPPD inhibiting herbicides. Apparent michaelis constants (Km) and maximal reaction velocities (Vmax) are calculated by non-linear regression with the software GraphPad Prism 5 (GraphPad Software, La Jolla, USA) using a substrate inhibition model. […]

T1 sequence (P93836 whole entry M335H/P336A/E363Q): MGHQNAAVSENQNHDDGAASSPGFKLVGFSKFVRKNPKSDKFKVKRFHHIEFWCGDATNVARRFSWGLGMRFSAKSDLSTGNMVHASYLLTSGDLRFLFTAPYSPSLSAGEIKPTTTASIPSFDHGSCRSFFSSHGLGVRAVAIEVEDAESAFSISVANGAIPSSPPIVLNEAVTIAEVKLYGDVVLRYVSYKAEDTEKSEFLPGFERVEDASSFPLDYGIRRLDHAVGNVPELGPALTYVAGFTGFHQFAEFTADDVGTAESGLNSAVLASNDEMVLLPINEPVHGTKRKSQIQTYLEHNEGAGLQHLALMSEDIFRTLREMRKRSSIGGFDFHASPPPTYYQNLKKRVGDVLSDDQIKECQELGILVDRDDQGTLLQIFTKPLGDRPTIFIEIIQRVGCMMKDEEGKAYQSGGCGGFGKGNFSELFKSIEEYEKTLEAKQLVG

Row | Structure (SMILES) | Normalized tolerance index TI [1] | Normalized tolerance index TI [2]
1 | COCCOCc1c(Cl)ccc(C2=C(O)c3ncccc3C(C)(C)S2(=O)=O)c1Cl [Inhibitor 3, 7-[2,4-dichloro-3-(2-methoxyethoxymethyl)phenyl]-5,5-dimethyl-6,6-dioxo-thiopyrano[4,3-b]pyridin-8-ol] | 0.3 | 0.7
2 | CC1=NOC(c2c(Cl)ccc(C3=C(O)c4ncccc4C(C)(C)S3(=O)=O)c2Cl)C1 (stereo not shown) [Inhibitor 1, 7-[2,4-dichloro-3-(3-methyl-4,5-dihydroisoxazol-5-yl)phenyl]-5,5-dimethyl-6,6-dioxo-thiopyrano[4,3-b]pyridin-8-ol] | 5.5 | 22
